Results published in article PMC6797648 (Targeted Oncology, 2019).
Where “and” joins values, the source holds several entries; their conditions need not be identical. Equal values may be shown once.

Legend:
[1] = molecular target: PIK3CD/PIK3R1 (Homo sapiens, UniProt O00329); assay: Purified enzyme-binding kinetics
[2] = Plasma and tissue distribution in A20 syngeneic model; assay type: in vivo, BALB/c mice; settings: for Tumor concentration, times higher than plasma concentration: 4 h after the last dose
[3] = Single-dose oral and IV pharmacokinetics in beagle dogs; assay type: in vivo, beagle dog
[4] = Allometric scaling of VSS to a hypothetical 60-kg human
[5] = test system: Caco-2 cell monolayer; assay: Caco-2 permeability and percent recovery
[6] = Blood to plasma ratio in human whole blood; assay type: in vitro ADME; settings: from the human B:P of 1.4
[7] = molecular target: purified PI3Kδ enzyme; settings: read-out: IC50, inhibition of purified PI3Kδ enzyme; cited from earlier work
[8] = test system: PI3Kδ; settings: read-out: IC50, inhibition of PI3Kδ in cellular assays; cited from earlier work
[9] = test system: peripheral blood basophils; settings: healthy volunteers, oral administration, CD63 expression following ex vivo stimulation; cited from earlier work
[10] = healthy volunteers, oral; cited from earlier work
[11] = Caco-2 permeability and percent recovery; settings: human, Caco-2, pH 7.4
[12] = 50 mg/kg twice daily for 4 days
[13] = ME-401 versus idelalisib, in vitro
[14] = 1 µM, Caco-2, apical to basolateral
[15] = 1 µM, Caco-2, basolateral to apical

Sequence of PIK3CD/PIK3R1 (O00329 whole entry): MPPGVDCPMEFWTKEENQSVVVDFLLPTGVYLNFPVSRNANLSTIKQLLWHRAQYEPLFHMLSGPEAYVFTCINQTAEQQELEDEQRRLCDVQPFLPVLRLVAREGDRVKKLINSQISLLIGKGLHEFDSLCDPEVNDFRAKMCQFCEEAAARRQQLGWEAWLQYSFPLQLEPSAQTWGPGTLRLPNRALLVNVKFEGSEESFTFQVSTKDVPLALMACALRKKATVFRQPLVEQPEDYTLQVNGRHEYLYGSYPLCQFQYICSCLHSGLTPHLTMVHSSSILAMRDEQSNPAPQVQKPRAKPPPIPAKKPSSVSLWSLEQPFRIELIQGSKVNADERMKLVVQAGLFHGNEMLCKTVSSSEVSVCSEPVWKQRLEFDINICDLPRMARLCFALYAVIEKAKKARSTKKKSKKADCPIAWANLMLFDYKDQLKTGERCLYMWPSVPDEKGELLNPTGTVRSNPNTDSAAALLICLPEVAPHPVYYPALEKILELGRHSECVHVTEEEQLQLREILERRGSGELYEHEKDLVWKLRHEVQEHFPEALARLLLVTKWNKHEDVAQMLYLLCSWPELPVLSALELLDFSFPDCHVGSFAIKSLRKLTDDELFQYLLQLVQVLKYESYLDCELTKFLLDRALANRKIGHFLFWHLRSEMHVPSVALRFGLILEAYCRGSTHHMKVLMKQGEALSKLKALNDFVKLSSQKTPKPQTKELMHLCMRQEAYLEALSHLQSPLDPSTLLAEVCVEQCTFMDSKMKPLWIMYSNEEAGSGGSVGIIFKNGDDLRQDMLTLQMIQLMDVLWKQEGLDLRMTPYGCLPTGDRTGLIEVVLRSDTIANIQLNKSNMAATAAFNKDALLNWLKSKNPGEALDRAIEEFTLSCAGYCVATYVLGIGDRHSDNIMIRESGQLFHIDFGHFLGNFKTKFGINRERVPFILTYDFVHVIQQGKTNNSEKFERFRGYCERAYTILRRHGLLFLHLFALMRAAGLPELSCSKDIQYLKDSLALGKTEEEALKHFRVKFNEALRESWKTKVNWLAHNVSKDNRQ
Sequence of PIK3CD/PIK3R1 (P27986 whole entry partner): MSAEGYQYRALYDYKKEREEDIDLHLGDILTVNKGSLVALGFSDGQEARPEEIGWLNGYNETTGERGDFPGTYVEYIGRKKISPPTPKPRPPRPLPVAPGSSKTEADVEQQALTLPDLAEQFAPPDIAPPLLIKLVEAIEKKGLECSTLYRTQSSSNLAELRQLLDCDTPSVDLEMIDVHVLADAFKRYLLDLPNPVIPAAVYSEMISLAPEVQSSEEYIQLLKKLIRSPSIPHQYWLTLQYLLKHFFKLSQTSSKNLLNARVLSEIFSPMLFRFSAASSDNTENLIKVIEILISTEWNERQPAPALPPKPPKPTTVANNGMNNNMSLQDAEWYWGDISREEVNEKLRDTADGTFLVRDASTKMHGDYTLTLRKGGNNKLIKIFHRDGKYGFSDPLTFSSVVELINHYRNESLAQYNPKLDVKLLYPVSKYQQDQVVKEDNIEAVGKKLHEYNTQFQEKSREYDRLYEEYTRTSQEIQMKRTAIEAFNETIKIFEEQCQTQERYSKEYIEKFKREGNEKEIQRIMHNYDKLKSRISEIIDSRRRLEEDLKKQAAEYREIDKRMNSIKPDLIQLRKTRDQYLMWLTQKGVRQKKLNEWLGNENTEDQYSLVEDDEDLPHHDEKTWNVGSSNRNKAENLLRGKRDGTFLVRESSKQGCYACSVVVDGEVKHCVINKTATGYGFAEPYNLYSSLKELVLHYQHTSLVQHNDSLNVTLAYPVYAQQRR

With CC[C@H](Nc1ncnc2[nH]cnc12)c1nc2cccc(F)c2c(=O)n1-c1ccccc1 [Idelalisib, idelalisib, reference compound] the “Dissociation rate, times higher than ME-401” value ([1]; idelalisib versus ME-401) was ~ 100 times and the “Tumor concentration, times higher than plasma concentration” value (“Tumor concentration” below) [2, 12] was “approximately three times higher”.

Work on CN1CCC(c2ccccc2CC(C)(C)Nc2nc(N3CCOCC3)nc(-n3c(C(F)F)nc4ccccc43)n2)CC1 [ME-401] yielded an AUCinf ([3]; dogs, 2 mg/kg IV) of 1247 ng·h/mL, a Bioavailability ([3]; dogs, oral 2 mg/kg versus IV 2 mg/kg) of 79% and an AUCinf ([3]; fasted dogs, 2 mg/kg orally) of 980 ng·h/mL. The “Extrapolated human VSS, times higher than blood volume” value [4] was “approximately 100 times”, the “Extrapolated human VSS, times higher than whole body volume” value [4] was “approximately 15 times” and the “Extrapolated human VSS, times larger than that reported for idelalisib” value [4] was ~ 28 times. The Residence time ([1]; 22 °C) was ~5 h and 5.3 h, the “kd dissociation rate constant” value ([1]; 22 °C, 1:1 binding model) was 5.2e-05 s⁻¹ and the “Binds more tightly than idelalisib” value [1, 13] was ~ 37 times. The “Remains on-target longer than idelalisib” value [1, 13] was ~ 138 times, the Kd ([1]; read-out: KD equilibrium dissociation constant, 22 °C, 1:1 binding model) was 0.03 nM and 0.0303 nM and the “Retained in the monolayer” value ([5]; 1 µM, Caco-2) was ~ 50%. For the same compound, the “Recovery, AB, cell lysate included” value [5, 14] was 79.3 ± 5.5%, the “Recovery, AB, only the experimental solutions measured” value [5, 14] was 30.3 ± 6.7% and the “Recovery, BA, cell lysate included” value [5, 15] was 85 ± 8.5%. For the same compound, the “Recovery, BA, only the experimental solutions measured” value [5, 15] was 69 ± 5.6%, the “AB Papp” value ([5]; apical to basolateral, Caco-2, pH 7.4, 2 h, 37 °C) was 3.67 ± 1.37 × 10^−6 cm/s and the “BA Papp” value ([5]; basolateral to apical, Caco-2, pH 7.4, 2 h, 37 °C) was 7.69 ± 1.39 × 10^−6 cm/s. For the same compound, the “Drug in the blood that distributes into blood cells at equilibrium” value [6] was “approximately 60%”, the IC50 [7] was 5 nM and the IC50 [8] was 0.6 nM. The “Tumor concentration” value [2, 12] was “approximately 20 times”, the “Brain tissue concentration as percent of plasma values” ([2]; 75 mg/kg twice daily for 4 days, 4 and 24 h after the last dose) was “approximately 30%” and the “Tumor concentration” value ([2]; 75 mg/kg twice daily for 4 days) was “approximately 30 times”. For the same compound, the “Decrease of tumor levels at 24 h compared with levels at 4 h” value ([2]; oral administration, A20 syngeneic mouse model) was 30–50%, the “EC90 plasma concentration, inhibition of basophil activation” value [9] was 5 ng/mL and the Half-life [10] was 28 h.

For CC(C)NCC(O)COc1cccc2ccccc12 (stereo not drawn) [propranolol, reference compound], the Papp at 2 h, 10 uM [11] was > 30 ×10⁻⁶ cm/s.
